Reference: patent US20070004736A1, “Imidazole derivative, process for producing the same, and use” (priority 2002, published 2007)
Where a name gives a salt, the structure may show the parent alone.

Molecular target: human FXa (Homo sapiens, UniProt P00742)
Experiment: Human activated blood coagulation factor X (FXa) inhibitory activity
Format: biochemical
Settings: concentration at which 50% of FXa activity was inhibited; substrate S-2765, 37° C., absorbance at 405 nm
Experimental: (1) Human Activated Blood Coagulation Factor X (FXa) Inhibitory Activity
Experimental method: 225 μl of a 0.05 M Tris-HCl buffer (pH 8.3) containing 0.145 M sodium chloride and 2 mM calcium chloride, 5 μl of a sample (a test compound was dissolved in dimethyl sulfoxide) and 10 μl of human FXa (0.3 unit/ml) were added to a 96-well microplate and incubated at 37° C. for about 10 minutes. Then, 10 μl of a substrate (3 mM, S-2765) was added to the plate and incubated at 37° C. for 10 minutes. After stopping the reaction by adding 25 μl of a 50% aqueous acetic acid, a change in absorbance at 405 nm was measured with a spectrophotometer, and the concentration (IC50) at which 50% of FXa activity was inhibited was calculated.

Sequence of human FXa (P00742 235-488 limits assumed): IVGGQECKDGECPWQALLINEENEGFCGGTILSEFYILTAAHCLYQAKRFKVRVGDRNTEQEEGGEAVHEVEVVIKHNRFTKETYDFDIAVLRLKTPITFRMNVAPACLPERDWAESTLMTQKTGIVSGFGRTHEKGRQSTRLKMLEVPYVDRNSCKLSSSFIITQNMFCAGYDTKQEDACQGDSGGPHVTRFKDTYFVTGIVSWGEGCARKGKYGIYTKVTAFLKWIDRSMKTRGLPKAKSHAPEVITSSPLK
Sequence of human FXa (P00742 41-179 partner limits assumed): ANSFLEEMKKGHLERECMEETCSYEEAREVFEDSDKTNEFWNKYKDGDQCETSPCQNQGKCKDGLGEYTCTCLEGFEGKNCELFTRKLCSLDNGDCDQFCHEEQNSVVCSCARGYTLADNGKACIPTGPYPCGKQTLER

SMILES	IC50 [nM]
Cc1ncc(C2CCN(C(=O)CCS(=O)(=O)c3ccc4cc(Cl)ccc4c3)CC2)n1C [Example 24, 1-{3-[(6-Chloro-2-naphthyl)sulufonyl]propanoyl}-4-(1,2-dimethyl-1H-imidazol-5-yl)piperidine]	31
Cc1ncc2n1CCN(C1CCN(C(=O)CCS(=O)(=O)c3ccc4cc(Cl)ccc4c3)CC1)C2=O [Example 38, 7-(1-{3-[(6-Chloro-2-naphthyl)sulfonyl]propanoyl}-4-piperidinyl)-3-methyl-6,7-dihydroimidazo[1,5-a]pyrazin-8(5H)-one]	11
Cc1ncn2c1C(=O)N(C1CCN(C(=O)CCS(=O)(=O)c3ccc4cc(Cl)ccc4c3)CC1)CC2 [Example 39, 7-(1-{3-[(6-Chloro-2-naphthyl)sulfonyl]propanoyl}-4-piperidinyl)-1-methyl-6,7-dihydoroimidazo[1,5-a]pyrazin-8(5H)-one]	11
CCc1ncc2n1C(=O)N(C1CCN(C(=O)CCS(=O)(=O)c3ccc4cc(Cl)ccc4c3)CC1)C2 [Example 42, 2-(1-{3-[(6-Chloro-2-naphthyl)sulfonyl]propanoyl}-4-piperidinyl)-5-ethyl-1,2-dihydro-3H-imidazo[1,5-c]imidazol-3-one]	7.1
Cc1nc(C)n2c1CN(C1CCN(C(=O)CCS(=O)(=O)c3ccc4cc(Cl)ccc4c3)CC1)C2=O [Example 72, 2-(1-{3-[(6-Chloro-2-naphthyl)sulfonyl]propanoyl}-4-piperidinyl)-5,7-dimethyl-1,2-dihydro-3H-imidazo[1,5-c]imidazol-3-one]	7.2
Cc1nccn1CCC1CCN(C(=O)CCS(=O)(=O)c2ccc3cc(Cl)ccc3c2)CC1 [Example 102, 1-{3-[(6-Chloro-2-naphthyl)sulfonyl]propanoyl}-4-[2-(2-methyl-1H-imdazol-1-yl)ethyl]piperidine hydrochloride]	43
Cc1nc(C)n(CCC2CCN(C(=O)CCS(=O)(=O)c3ccc4cc(Cl)ccc4c3)CC2)c1C [Example 109, 1-{3-[(6-Chloro-2-naphthyl)sulfonyl]propanoyl}-4-[2-(2,4,5-trimethyl-1H-imidazol-1-yl)ethyl]piperidine]	45
